# HELM strings list units from the 5' end as sugar, base in round brackets, then linkage (d deoxyribose, r ribose, m 2'-O-methyl, p phosphodiester). Strings are as the collection lists them; they lack the last nucleoside at the 3' end of the tested compound. [moe] = 2'-O-(2-methoxyethyl) (MOE); [sp] = phosphorothioate linkage; [m5C] = 5-methylcytosine
# Biological target: ATXN2
# Assay: mouse, dose not given
# Conditions: ASO
row,Substance,3 h FOB score
1,RNA1{[moe](A)[sp].[moe]([m5C])p.[moe](A)p.[moe]([m5C])[sp].[moe](A)[sp].d(G)[sp].d(T)[sp].d(T)[sp].d(T)[sp].d([m5C])[sp].d(A)[sp].d([m5C])[sp].d(T)[sp].d(A)[sp].d(G)[sp].[moe](G)p.[moe](T)p.[moe](T)[sp].[moe]([m5C])}$$$$ (last 3' nucleoside missing),2 score 0-7
2,RNA1{[moe](A)[sp].[moe]([m5C])p.[moe](A)p.[moe]([m5C])p.[moe](A)[sp].d(G)[sp].d(T)[sp].d(T)[sp].d(T)[sp].d([m5C])[sp].d(A)[sp].d([m5C])[sp].d(T)[sp].d(A)[sp].d(G)[sp].[moe](G)p.[moe](T)p.[moe](T)[sp].[moe]([m5C])}$$$$ (last 3' nucleoside missing),4.75 score 0-7
3,RNA1{[moe](A)[sp].[moe]([m5C])p.[moe](A)p.[moe]([m5C])p.[moe](A)p.[moe](G)p.d(T)[sp].d(T)[sp].d(T)[sp].d([m5C])[sp].d(A)[sp].d([m5C])[sp].d(T)[sp].d(A)[sp].d(G)[sp].d(G)[sp].[moe](T)p.[moe](T)[sp].[moe]([m5C])}$$$$ (last 3' nucleoside missing),1 score 0-7
4,RNA1{[moe](A)[sp].[moe]([m5C])p.[moe](A)p.[moe]([m5C])p.[moe](A)p.d(G)[sp].d(T)[sp].d(T)[sp].d(T)[sp].d([m5C])[sp].d(A)[sp].d([m5C])[sp].d(T)[sp].d(A)[sp].d(G)[sp].[moe](G)p.[moe](T)p.[moe](T)[sp].[moe]([m5C])}$$$$ (last 3' nucleoside missing),0 score 0-7
5,RNA1{[moe](A)[sp].[moe]([m5C])p.[moe](A)p.[moe]([m5C])p.d(A)[sp].d(G)[sp].d(T)[sp].d(T)[sp].d(T)[sp].d([m5C])[sp].d(A)[sp].d([m5C])[sp].d(T)[sp].d(A)[sp].[moe](G)p.[moe](G)p.[moe](T)p.[moe](T)[sp].[moe]([m5C])}$$$$ (last 3' nucleoside missing),0 score 0-7
6,RNA1{[moe](A)[sp].[moe]([m5C])p.[moe](G)p.[moe]([m5C])p.[moe](G)p.d(G)[sp].d(T)[sp].d(G)[sp].d(A)[sp].d(A)[sp].d(T)[sp].d(T)[sp].d([m5C])[sp].d(T)[sp].d(G)[sp].[moe](T)p.[moe]([m5C])p.[moe](T)[sp].[moe]([m5C])}$$$$ (last 3' nucleoside missing),1 score 0-7
7,RNA1{[moe](A)[sp].[moe]([m5C])p.[moe](G)p.[moe]([m5C])p.[moe](T)p.d(G)[sp].d(T)[sp].d(A)[sp].d(T)[sp].d(T)[sp].d(T)[sp].d(T)[sp].d(T)[sp].d(A)[sp].d([m5C])[sp].[moe](T)p.[moe]([m5C])p.[moe](A)[sp].[moe]([m5C])}$$$$ (last 3' nucleoside missing),0 score 0-7
8,RNA1{[moe](A)[sp].[moe]([m5C])p.[moe](T)p.[moe](G)p.[moe](A)p.d(G)[sp].d(T)[sp].d(T)[sp].d([m5C])[sp].d(T)[sp].d(A)[sp].d(T)[sp].d(A)[sp].d(G)[sp].d(G)[sp].[moe](T)p.[moe](G)p.[moe]([m5C])[sp].[moe](T)}$$$$ (last 3' nucleoside missing),3 score 0-7
9,RNA1{[moe](A)[sp].[moe]([m5C])p.[moe](T)p.[moe](G)p.[moe](G)p.d(A)[sp].d(T)[sp].d(T)[sp].d([m5C])[sp].d(T)[sp].d(G)[sp].d(T)[sp].d(A)[sp].d([m5C])[sp].d(T)[sp].[moe](T)p.[moe](T)p.[moe](T)[sp].[moe]([m5C])}$$$$ (last 3' nucleoside missing),2 score 0-7
10,RNA1{[moe](A)[sp].[moe]([m5C])p.[moe](T)p.[moe](G)p.[moe](T)p.d(T)[sp].d(T)[sp].d([m5C])[sp].d(G)[sp].d(A)[sp].d([m5C])[sp].d([m5C])[sp].d(T)[sp].d([m5C])[sp].d(T)[sp].[moe](G)p.[moe](A)p.[moe](A)[sp].[moe](A)}$$$$ (last 3' nucleoside missing),4 score 0-7
11,RNA1{[moe](A)[sp].[moe]([m5C])p.[moe](T)p.[moe](T)p.[moe](G)p.d(T)[sp].d(A)[sp].d([m5C])[sp].d(T)[sp].d(T)[sp].d([m5C])[sp].d(A)[sp].d([m5C])[sp].d(A)[sp].d(T)[sp].[moe](T)p.[moe](T)p.[moe](G)[sp].[moe](G)}$$$$ (last 3' nucleoside missing),1 score 0-7
12,RNA1{[moe](A)[sp].[moe]([m5C])p.[moe](T)p.[moe](T)p.[moe](T)[sp].d(T)[sp].d([m5C])[sp].d(T)[sp].d([m5C])[sp].d(A)[sp].d(T)[sp].d(G)[sp].d(T)[sp].[moe](G)p.[moe]([m5C])p.[moe](G)[sp].[moe](G)}$$$$ (last 3' nucleoside missing),3.25 score 0-7
13,RNA1{[moe](A)[sp].[moe]([m5C])p.[moe](T)p.[moe](T)p.[moe](T)p.[moe](T)p.d([m5C])[sp].d(T)[sp].d([m5C])[sp].d(A)[sp].d(T)[sp].d(G)[sp].d(T)[sp].d(G)[sp].d([m5C])[sp].d(G)[sp].[moe](G)p.[moe]([m5C])[sp].[moe](A)}$$$$ (last 3' nucleoside missing),6.5 score 0-7
14,RNA1{[moe](A)[sp].[moe]([m5C])p.[moe](T)p.[moe](T)p.[moe](T)p.d(T)[sp].d([m5C])[sp].d(T)[sp].d([m5C])[sp].d(A)[sp].d(T)[sp].d(G)[sp].d(T)[sp].d(G)[sp].d([m5C])[sp].[moe](G)p.[moe](G)p.[moe]([m5C])[sp].[moe](A)}$$$$ (last 3' nucleoside missing),5 score 0-7
15,RNA1{[moe](A)[sp].[moe]([m5C])p.[moe](T)p.[moe](T)p.[moe]([m5C])[sp].d(T)[sp].d([m5C])[sp].d(T)[sp].d(A)[sp].d(T)[sp].d(T)[sp].d(T)[sp].d([m5C])[sp].[moe](T)p.[moe](T)p.[moe](T)[sp].[moe](G)}$$$$ (last 3' nucleoside missing),2 score 0-7
16,RNA1{[moe](A)[sp].[moe]([m5C])p.[moe](T)p.[moe](T)p.[moe]([m5C])p.[moe](T)p.d([m5C])[sp].d(T)[sp].d(A)[sp].d(T)[sp].d(T)[sp].d(T)[sp].d([m5C])[sp].d(T)[sp].d(T)[sp].d(T)[sp].[moe](G)p.[moe](T)[sp].[moe]([m5C])}$$$$ (last 3' nucleoside missing),1.25 score 0-7
17,RNA1{[moe](A)[sp].[moe]([m5C])p.[moe](T)p.[moe](T)p.[moe]([m5C])p.d(A)[sp].d([m5C])[sp].d(A)[sp].d(T)[sp].d(T)[sp].d(T)[sp].d(G)[sp].d(G)[sp].d(A)[sp].d(G)[sp].[moe]([m5C])p.[moe]([m5C])p.[moe]([m5C])[sp].[moe](T)}$$$$ (last 3' nucleoside missing),5.75 score 0-7
18,RNA1{[moe](A)[sp].[moe]([m5C])p.[moe](T)p.[moe](T)p.[moe]([m5C])p.d(T)[sp].d([m5C])[sp].d(T)[sp].d(A)[sp].d(T)[sp].d(T)[sp].d(T)[sp].d([m5C])[sp].d(T)[sp].d(T)[sp].[moe](T)p.[moe](G)p.[moe](T)[sp].[moe]([m5C])}$$$$ (last 3' nucleoside missing),3 score 0-7
19,RNA1{[moe](A)[sp].[moe]([m5C])p.[moe](T)p.[moe](T)p.d(T)[sp].d(T)[sp].d([m5C])[sp].d(T)[sp].d([m5C])[sp].d(A)[sp].d(T)[sp].d(G)[sp].d(T)[sp].d(G)[sp].[moe]([m5C])p.[moe](G)p.[moe](G)p.[moe]([m5C])[sp].[moe](A)}$$$$ (last 3' nucleoside missing),2.5 score 0-7
20,RNA1{[moe](A)[sp].[moe]([m5C])p.[moe](T)p.[moe](T)p.d([m5C])[sp].d(T)[sp].d([m5C])[sp].d(T)[sp].d(A)[sp].d(T)[sp].d(T)[sp].d(T)[sp].d([m5C])[sp].d(T)[sp].[moe](T)p.[moe](T)p.[moe](G)p.[moe](T)[sp].[moe]([m5C])}$$$$ (last 3' nucleoside missing),0 score 0-7
21,RNA1{[moe](A)[sp].[moe]([m5C])p.[moe](T)p.[moe]([m5C])p.[moe](T)p.d([m5C])[sp].d([m5C])[sp].d(A)[sp].d(T)[sp].d(T)[sp].d(A)[sp].d(T)[sp].d(T)[sp].d(T)[sp].d([m5C])[sp].[moe](T)p.[moe](T)p.[moe]([m5C])[sp].[moe](A)}$$$$ (last 3' nucleoside missing),1 score 0-7
22,RNA1{[moe](G)[sp].[moe](A)p.[moe](A)p.[moe](G)p.[moe](T)p.d([m5C])[sp].d(T)[sp].d(T)[sp].d(G)[sp].d(T)[sp].d(T)[sp].d([m5C])[sp].d(A)[sp].d(G)[sp].d(T)[sp].[moe](G)p.[moe](T)p.[moe]([m5C])[sp].[moe]([m5C])}$$$$ (last 3' nucleoside missing),3.75 score 0-7
23,RNA1{[moe](G)[sp].[moe](A)p.[moe](A)p.[moe](G)p.[moe]([m5C])p.d(A)[sp].d(G)[sp].d(A)[sp].d(T)[sp].d(T)[sp].d(T)[sp].d(T)[sp].d(T)[sp].d(T)[sp].d(T)[sp].[moe](T)p.[moe](T)p.[moe](T)[sp].[moe](T)}$$$$ (last 3' nucleoside missing),3 score 0-7
24,RNA1{[moe](G)[sp].[moe](A)p.[moe](A)p.[moe](T)p.[moe]([m5C])p.d(T)[sp].d(T)[sp].d(A)[sp].d(T)[sp].d(T)[sp].d(A)[sp].d(A)[sp].d(G)[sp].d([m5C])[sp].d(A)[sp].[moe](A)p.[moe](G)p.[moe](T)[sp].[moe]([m5C])}$$$$ (last 3' nucleoside missing),2.5 score 0-7
25,RNA1{[moe](G)[sp].[moe](A)p.[moe](A)p.[moe]([m5C])p.[moe](A)p.d([m5C])[sp].d([m5C])[sp].d(A)[sp].d(T)[sp].d(G)[sp].d(A)[sp].d([m5C])[sp].d(T)[sp].d(G)[sp].d(A)[sp].[moe](T)p.[moe]([m5C])p.[moe]([m5C])[sp].[moe]([m5C])}$$$$ (last 3' nucleoside missing),4 score 0-7
26,RNA1{[moe](G)[sp].[moe](A)p.[moe](A)p.[moe]([m5C])p.[moe](T)p.d(G)[sp].d(G)[sp].d(A)[sp].d(T)[sp].d(T)[sp].d([m5C])[sp].d(T)[sp].d(G)[sp].d(T)[sp].d(A)[sp].[moe]([m5C])p.[moe](T)p.[moe](T)[sp].[moe](T)}$$$$ (last 3' nucleoside missing),4 score 0-7
